Measurements: patent US20150274701A1, “NEW AZIDES, METHOD FOR PRODUCING SAME AND APPLICATIONS THEREOF” (COMMISSARIAT A L'ENERGIE ATOMIQUE ET AUX ENERGIES …, priority 2012, published 2015)

Assays:
[1] = Ligation kinetics in a complex medium (cell lysate), fluorescent test; conditions: azide and alkyne 17.5 μM, Cu 350 μM, sodium ascorbate 8.75 mM (500 eq)
Experimental: An experiment was also carried out in a cell culture medium. The process was carried out as follows:
100 μl of a solution containing 35 μM of alkyne C1 and 35 μM of azide RN3 dissolved in cell lysate are added to 50 μl of cell lysate containing 1.4 mM of CuSO4. The reaction is then initiated by adding 50 μl of an aqueous solution containing 1.75 mM of ascorbic acid (AS). The cycloaddition reaction is monitored by measuring, every 5 seconds, for 20 minutes, the fluorescence intensity at 400 nm following excitation at 320 nm. The reaction yield is calculated by means of a calibration range previously established with the cyclo-adduct C2.
Conditions: Azide and alkyne 17.5 μM, Cu 350 μM, sodium ascorbate 8.75 mM (500 eq).

[2] = Azide/alkyne click reaction kinetics in a buffered medium (fluorescent test); conditions: for Reaction rate / Ligation yield: aqueous medium at neutral pH, azide, alkyne and Cu 17.5 μM, sodium ascorbate 475 μM (25 eq); for Ligation yield: monitored for 20 minutes
Experimental: The azide/alkyne coupling reaction kinetics obtained using azides of the present invention and also the kinetics obtained using copper-chelating compounds and azides of the prior art were studied.
The kinetics were done under concentration conditions conventional in bioconjugation, i.e. in an aqueous medium at neutral pH and under conditions of low concentration of reagents: azide, alkyne and Cu 17.5 μM, sodium ascorbate 475 μM (25 eq).
The reactivity of the azides of the invention with respect to the azide/alkyne “click” reaction was evaluated by means of a fluorescent test (scheme 1) which makes it possible to establish the kinetic parameters of the reaction and to compare them with the solutions from the literature. This test uses a pro-fluorescent alkyne C1 which forms a highly fluorescent cycloaddition product C2. The synthesis and the fluorescence properties are described in the literature.
100 μl of a solution containing 35 μM of alkyne C1 and 35 μm of azide RN3 dissolved in a DMF/H2O mixture (50/50) are added to 50 μl of an aqueous solution containing 70 μM of CuSO4. The reaction is then initiated by adding 50 μl of an aqueous solution containing 1.75 mM of ascorbic acid (AS). The cycloaddition reaction is monitored by measuring, every 5 seconds, for 20 minutes, the fluorescence intensity at 400 nm following excitation at 320 nm. The reaction yield is calculated by means of a calibration range previously established with the cyclo-adduct C2.

[3] = Click reaction kinetics of chelating azides in phosphate buffer (fluorescent test); conditions: 0.1M phosphate buffer pH 7.4; alkyne and azide 17 μM, copper sulfate 34 μM, sodium ascorbate 850 μM
Experimental: (§1) The reaction kinetics were determined by means of a fluorescent test illustrated by the reaction below, making it possible to establish the kinetic parameters of the reaction and to compare them with the solutions from the literature. This test uses a pro-fluorescent alkyne which forms a highly fluorescent cycloaddition product.
(§2) The operating conditions are the following: the same concentration of 17 μM was used for the alkyne and for the azide. The copper sulfate concentration was 34 μM and the sodium ascorbate (AS) concentration was 850 μM.
(§3) The process was carried out, on the one hand, in a 0.1M phosphate buffer at pH 7.4 and, on the other hand, in a cell lysate obtained by means of three cycles of sonication of Jurkat ([…]) for 30 seconds. The alkyne, the azide and the copper sulfate are mixed at ambient temperature for 30 minutes and then the kinetics are initiated by adding sodium ascorbate.

[4] = Click reaction kinetics of chelating azides in cell lysate (fluorescent test); conditions: cell lysate of Jurkat (human T-cell leukemia), alkyne and azide 17 μM, copper sulfate 34 μM, sodium ascorbate 850 μM
Experimental: as §1, §2, §3

[5] = tested on: HuH-7 cells; assay: Ligation in living cells, fluorescence microscopy; type: cell-based; conditions: HuH-7 cells pre-incubated with 62.5 nM paclitaxel-alkyne 2; 100 μM copper complex of compound 1 for 4 h
Experimental: HuH-7 cells fixed on 96-well plates, incubated beforehand in the presence of paclitaxel 2 comprising an alkyne function, were treated with the copper complex above.
The cells were treated with 100 μl of a 62.5 nM solution of compound 2 dissolved in 0.1M phosphate buffer, and then incubated at 37° C. for 30 min. The cells are then washed twice by adding 100 μl of 0.1M phosphate buffer and then treated for 4 h with 100 μl of a 100 μM solution of the copper complex of compound 1. The cells are again washed twice by adding 100 μl of 0.1M phosphate buffer and then fixed by treating with 150 μl of a 4% formaldehyde solution. After fixing for 15 min, the cells are washed twice by adding 100 μl of 0.1M phosphate buffer and then incubated with a 62.5 nM solution of Tubulin Tracker® Green 3 for 30 min at 37° C. The cells are again washed with 0.1M phosphate buffer and then observed by fluorescence microscopy.
After cell washing steps, the fluorescence of the rhodamine part of the copper complex of compound 1 was measured. […] Compound 3, a covalent conjugate between the paclitaxel and the Oregon Green® fluorophore, was used as a control.
FIG. 8A illustrates the localization of the cell nucleus by the 4′,6′-diamidino-2-phenylindole reagent.

Compound	position of the ligation yield versus time curve in FIG. 5 [1]	Reaction rate [2] [µM/min]	Ligation yield [2] [%]	click reaction activity (FIG. 6) [3]	click reaction activity (FIG. 7) [4]	also measured
COc1ccnc(CN=[N+]=[N-])c1 [Comparative example 3, reference compound]	lower curves	3.5	35			
[N-]=[N+]=NCCCN(Cc1cn(Cc2ccccc2)nn1)Cc1cn(Cc2ccccc2)nn1 [Preparation 2, 3-azido-N, N-bis((1-benzyl-1H-1,2,3-triazol-4-yl)methyl)propan-1-amine]		10.8	45			
[N-]=[N+]=NCCCN(Cc1cn(CCCCC(=O)O)nn1)Cc1cn(CCCCC(=O)O)nn1 [Example 1, 5,5′-(4,4′-(((3-azidopropyl)azanediyl)bis(methylene))bis(1H-1,2,3-triazole-4,1-diyl))dipentanoic acid]		12.0	74	make it possible to carry out the click reaction with efficiency	make it possible to carry out the click reaction with efficiency	ligation yields relative to the best comparable compounds of the prior art ([2]; buffered medium): twice as high
CC(C)(C)n1cc(CN(CCCN=[N+]=[N-])Cc2cn(CCCCC(=O)O)nn2)nn1 [Example 2, 5-(4-(((3-azidopropyl)((1-(tert-butyl)-1H-1,2,3-triazol-4-yl)methyl)amino)methyl)-1H-1,2,3-triazol-1-yl)pentanoic acid]	upper curve			make it possible to carry out the click reaction with efficiency	particularly effective	click reaction activity (FIG. 7) ([4]; listed as A20): make it possible to carry out the click reaction with efficiency
[N-]=[N+]=NCc1ccccn1 [Comparative example 2, reference compound]		4.2	28			
Diethyl 5,5′-(4,4′-(((3-azidopropyl)azanediyl)bis(methylene))bis(1H-1,2,3-triazole-4,1-diyl))dipentanoate [Preparation 3]	middle curve	16.5	67			ligation yields relative to the best comparable compounds of the prior art ([2]; buffered medium): twice as high
CN(C)c1ccc2c(-c3cc(C(=O)NCCCN4C(=O)CC(SCC(=O)NCCCNC(=O)CCCn5cc(CN(CCCN=[N+]=[N-])Cc6cn(C(C)(C)C)nn6)nn5)C4=O)ccc3C(=O)[O-])c3ccc(=[N+](C)C)cc-3oc2c1 (centres unmarked) [azide 1, 4-((3-(3((2-((3-(4-(4-(((3-azidopropyl)((1-(tert-butyl)-1H-1,2,3-triazol-4-yl)methyl)amino)methyl)-1H-1,2,3-triazol-1-yl)butanamido)propyl)amino)-2-oxoethyl)thio)-2,5-dioxopyrrolidin-1-yl)propyl)carbamoyl)-2-(6-(dimethylamino)-3-(dimethyliminio)-3H-xanthen-9-yl)benzoate]						cell penetration and intracellular click coupling to paclitaxel-alkyne 2 bound to tubulin (FIG. 8) [5]: capable of penetrating inside the cells and of coupling
Cn1c(CN(CCCN=[N+]=[N-])Cc2nc3ccccc3n2C)nc2ccccc21 [Preparation 1, 3-Azido-N,N-bis((1-methyl-1H-benzo[d]imidazol-2-yl)methyl)propan-1-amine]		101.7	65			click reaction faster than the comparable compounds of the prior art ([2]; buffered medium): approximately 20 times
[N-]=[N+]=NCCCN(Cc1ccccn1)Cc1ccccn1 [Example A14, reference compound]				inactive	inactive	
